Values after ≈ are worked out from the molar mass of the structure shown.
Columns and labels:
[1] = Equilibrium solubility; format: physicochemical; settings: citrate buffer, aqueous buffer, thermodynamic from solid; pH 4.2, 0.15 M Citrat-buffer, 21° C.
Method: Method Description Equilibrium Solubility
Equilibrium solubility values were determined at pH 4.2 (0.15 M Citrat-buffer). A known amount of drug, generally 1–2 mg, was added to 250 μl of buffer (glass tubes) and the resulting suspension was stirred for 2 h (21° C.), after 5 minutes of sonification. The pH of the solution was checked and corrected if necessary (in case of pH correction, the solution was once more shaken and equilibrated) and after 24 h the suspension was filtered through a 0.65-μm filter. The filtered solution was then assayed by HPLC to determine the drug concentration. In cases where the drug had completely dissolved in the buffer, the value for equilibrium solubility was assumed to be higher than the value determined by HPLC and was reported as such. Stock solutions (˜1 mg/ml) in DMSO were used in the preparation of a calibration curve in the related buffer using HPLC analytics.

[2] = target: T1, human NK-1 receptor (Homo sapiens, UniProt P25103); assay: NK-1 receptor binding, [3H]substance P displacement; settings: human NK-1 receptors in CHO cells, [3H]substance P 0.6 nM; read-out: pKi(NK-1) (converted)
T1 construct: expressed in transfected cells; host or cells: CHO cells infected using the Semliki virus expression system; membrane suspension
T1 sequence (P25103 whole entry): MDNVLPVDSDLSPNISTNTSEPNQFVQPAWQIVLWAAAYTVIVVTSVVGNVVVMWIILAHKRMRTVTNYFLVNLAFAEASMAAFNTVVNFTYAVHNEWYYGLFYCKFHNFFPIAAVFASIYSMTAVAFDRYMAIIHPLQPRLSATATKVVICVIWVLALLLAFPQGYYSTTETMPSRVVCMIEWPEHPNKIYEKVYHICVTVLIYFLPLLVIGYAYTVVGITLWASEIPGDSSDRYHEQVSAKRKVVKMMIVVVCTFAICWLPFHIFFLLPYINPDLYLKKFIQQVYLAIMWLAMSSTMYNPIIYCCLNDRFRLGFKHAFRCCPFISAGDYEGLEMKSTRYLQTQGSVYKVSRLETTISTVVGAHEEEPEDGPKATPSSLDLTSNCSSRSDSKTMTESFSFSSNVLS
Method: The affinity of test compounds for the NK-1 receptor was evaluated at human NK-1 receptors in CHO cells infected with the human NK-1 receptor (using the Semliki virus expression system) and radiolabelled with [^3H]substance P (final concentration 0.6 nM). Binding assays were performed in HEPES buffer (50 mM, pH 7.4) containing BSA (0.04%) leupeptin (8 μg/ml), MnCl2 (3 mM) and phosphoramidon (2 μM). Binding assays consisted of 250 μl of membrane suspension (1.25×10^5 cells/assay tube), […] of buffer of displacing agent and 125 μl of [^3H]substance P. Displacement curves were determined with at least seven concentrations of the compound. The assay tubes were incubated for 60 min at room temperature after which time the tube contents were rapidly filtered under vacuum through GF/C filters presoaked for 60 min with PEI (0.3%) with 2×2 ml washes of HEPES buffer (50 mM, pH 7.4). The radioactivity retained on the filters was measured by scintillation counting. All assays were performed in triplicate in at least 2 separate experiments.

**Q.** With `Cc1ccccc1-c1cc(N2CCN(C)CC2)ncc1C(=O)N(C)Cc1cc(C(F)(F)F)cc(C(F)(F)F)c1` [EP 1 035 115A1example 12, reference compound] as the molecule, how does the solubility at 24 h [1] read?
**A.** 495 µg/mL (≈ 0.899 mM)

**Q.** With `Cc1ccccc1-c1cc(N2CCN(C)CC2)ncc1N(C)C(=O)C(C)(C)c1cc(C(F)(F)F)cc(C(F)(F)F)c1` [EP 1 035 115A1example 14, reference compound] as the molecule, how does the solubility at 24 h [1] read?
**A.** 26 µg/mL (≈ 0.0449 mM)

**Q.** And the Ki [2]?
**A.** 0.977 nM

**Q.** Which solubility at 24 h [1] does the source give for `Cc1ncccc1-c1cc(N2CCN(C)CC2)ncc1C(=O)N(C)Cc1cc(C(F)(F)F)cc(C(F)(F)F)c1` [Example 1, 2-Methyl-6′-(4-methyl-piperazin-1-yl)-[3,4′]bipyridinyl-3′-carboxylic acid (3,5-bis-trifluoromethyl-benzyl)-methyl-amide] here?
**A.** 13700 µg/mL (≈ 24.8 mM)

**Q.** What about the Ki [2] of the same molecule?
**A.** 2.75 nM

**Q.** Which solubility at 24 h [1] does the source give for `Cc1ncccc1-c1cc(N2CCN(C)CC2)ncc1N(C)C(=O)C(C)(C)c1cc(C(F)(F)F)cc(C(F)(F)F)c1` [Example 2, 2-(3,5-Bis-trifluoromethyl-phenyl)-N-methyl-N-[2-methyl-6′-(4-methyl-piperazin-1-yl)-[3,4′]bipyridinyl-3′-yl]-isobutyramide] here?
**A.** 7500 µg/mL (≈ 12.9 mM)

**Q.** What about the Ki [2] of the same molecule?
**A.** 1.1 nM

— patent publication US7176205B2, “Bi-pyridinyl derivatives as NK-1 antagonists” (Hoffmann-La Roche Inc., priority 2005, dated 2007)
